Test results as given in ChEMBL document CHEMBL1143793, “Solid-phase synthesis of Stat3 inhibitors incorporating O-carbamoylserine and O-carbamoylthreonine as glutamine mimics” (Bioorg Med Chem Lett, 2007).

Target: Signal transducer and activator of transcription 3 (Homo sapiens, UniProt P40763)
Assay: Inhibition of Stat3

Chain of Signal transducer and activator of transcription 3 (P40763 whole entry): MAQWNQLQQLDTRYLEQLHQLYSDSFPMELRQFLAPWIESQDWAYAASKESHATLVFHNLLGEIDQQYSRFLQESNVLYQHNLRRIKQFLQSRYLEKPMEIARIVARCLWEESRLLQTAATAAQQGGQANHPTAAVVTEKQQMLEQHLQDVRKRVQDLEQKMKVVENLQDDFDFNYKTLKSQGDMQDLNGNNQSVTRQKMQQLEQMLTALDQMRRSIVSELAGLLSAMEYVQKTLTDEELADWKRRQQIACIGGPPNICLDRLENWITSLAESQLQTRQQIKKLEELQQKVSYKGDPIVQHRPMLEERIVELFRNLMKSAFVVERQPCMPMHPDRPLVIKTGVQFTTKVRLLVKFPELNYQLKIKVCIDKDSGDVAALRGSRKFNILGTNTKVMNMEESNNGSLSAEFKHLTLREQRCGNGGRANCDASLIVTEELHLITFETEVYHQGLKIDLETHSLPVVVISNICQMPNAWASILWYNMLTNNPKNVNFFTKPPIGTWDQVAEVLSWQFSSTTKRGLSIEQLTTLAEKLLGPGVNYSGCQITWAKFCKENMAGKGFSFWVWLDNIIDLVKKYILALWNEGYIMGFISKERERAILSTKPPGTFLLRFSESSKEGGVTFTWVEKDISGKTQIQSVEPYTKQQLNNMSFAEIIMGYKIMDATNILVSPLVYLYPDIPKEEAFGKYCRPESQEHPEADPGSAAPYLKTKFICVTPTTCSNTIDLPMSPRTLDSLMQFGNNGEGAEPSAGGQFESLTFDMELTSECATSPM

Row | IC50 | SMILES
1 | 379 nM | CC(C)C[C@H](NC(=O)/C=C/c1ccc(OP(=O)(O)O)cc1)C(=O)N1CCC[C@H]1C(=O)N[C@@H](COC(N)=O)C(=O)NCc1ccccc1
2 | 850 nM | CC(C)C[C@H](NC(=O)/C=C/c1ccc(OP(=O)(O)O)cc1)C(=O)N1CCC[C@H]1C(=O)N[C@H](C(=O)NCc1ccccc1)[C@@H](C)OC(N)=O

Row | SMILES | IC50
3 | CC(C)C[C@H](NC(=O)/C=C/c1ccc(OP(=O)(O)O)cc1)C(=O)N1CCC[C@H]1C(=O)N[C@@H](CCC(N)=O)C(=O)NCc1ccccc1 | 135 nM
